Data published in US20210106674A1, “Gene Therapy For Mesothelioma” (The Trustees of the University of Pennsylvania, priority 2019, published 2021).
Marks after values point to notes of the source that are not given here.

Columns and labels:
MPM [1] = conditions: published trial, Pem re-treat with pem; cited from earlier work
MPM [2] = assay: Recent published trials of chemotherapy in MPM (historical comparison); format: in vivo; conditions: average of three published trials of pemetrexed re-treatment (103 patients)
CD8 T cells and NK cells = assay: Flow cytometry of PBMC: CD69 on CD8 T cells and NK cells; format: in vivo, Human
Protocol: PBMCs were studied from a set of six patients who responded to therapy and 6 patients who progressed with treatment (Table 6).
PBMC were thawed and the activation of natural killer cell (NK) and T cells was assessed using flow cytometry as detailed in the Supplemental Methods (see also Ref 19).
All mAbs were from BD Biosciences (San Diego, Calif.) and R&D systems (Minneapolis, Minn., USA).
Details of the cell preparation and staining have been previously published (Stevenson J P, Kindler H L, Papasavvas E, et al. Immunological effects of anti-transforming growth factor-beta (TGF-beta) antibody GC1008 in cancer patients with malignant pleural mesothelioma (MPM). Oncoimmunology 2013; 8:e26218). Analysis was done by collecting 100,000 live lymphocytes (defined by size and granularity in FSC and SSC). Dead cells were excluded by manual gating in FSC/SSC. Detection thresholds were set according to isotype-matched negative controls. Results were expressed as Mean Fluorescent Intensity (MFI) and percent (%) of lymphocytes, NK cells (Lin3-CD56dimCD16+), CD3+CD4+ or CD3+CD8+ T cells. Data analysis was performed using FloJo software (Tree Star, San Carlos, Calif.).
Data were described as medians, 25th and 75th percentiles. Comparisons between responders (n=6) and non-responders (n=6) at each time point were done using Wilcoxon Kruskal-Wallis tests (Rank Sums). Differences between time points for all patients (n=12) were tested using Wilcoxon Signed-Rank or paired t-tests depending on data distribution, while differences between time points in responders (n=6) and in non-responders (n=6) were tested using Wilcoxon Signed-Rank. p values that were less than 0.05 were considered statistically significant. All statistics used JMP Pro11®.

[3] = test system: serum mesothelin-related protein (SMRP); assay: ELISA of serum mesothelin-related protein (SMRP); format: in vivo, Human; conditions: compared to baseline
Description: See Supplemental Methods for details.

[4] = test system: purified mesothelin and extracts from allogeneic mesothelioma cell lines; assay: Immunoblotting with patient serum for induced anti-tumor antibodies; format: in vivo, Human; set-up: key to Antibody Response: 0 = no change; 1 = marginal changes; 2 = significant changes
Protocol: Enzyme-linked immunosorbent assays (ELISAs) were used to measure IFN-α2b levels (PBL Biomedical Labs; Piscataway, N.J.), as well as serum mesothelin-related protein (SMRP) levels (Fujirebio, Inc., Malvern, Pa.). Neutralizing adenovirus antibody titers (Nabs) were assessed as previously described (5). To detect induced humoral responses against tumor antigens, we performed immunoblotting against purified mesothelin and extracts from allogeneic mesothelioma cell lines using pre- and post-treatment serum as previously described (4-6). See Supplemental Methods for details.
To detect induced humoral responses against tumor antigens, we performed immunoblotting against purified mesothelin and extracts from allogeneic mesothelioma cell lines. Purified mesothelin was purchased from Raybiotech (Norcross, Ga.). Cell lines were derived from patient pleural fluid samples from previous clinical trials and were grown in culture as previously described (Sterman D H, Reico A, Haas A R, et al. A phase I trial of repeated Intrapleural adenoviral-mediated interferon-beta gene transfer for mesothelioma and metastatic pleural effusion. Mol Ther 2010; 18: 852-60). Extracts from cells or purified proteins were prepared and immunoblotted with patient serum (diluted at 1:1500) from time points before treatment, and 6 weeks after treatment as previously described (Sterman et al., 2010). Multiple exposures were obtained and comparisons were made on the exposures in which the major bands detected on pre-treatment blots were of equal intensity in post-treatment blots.
The blots were semi-quantitatively scored as follows: 0=no change in any bands; 1=minimal changes (i.e. increased intensity in one or two bands); 2=clear increases in >2 bands or appearance of new bands.

[5] = post-treatment serum, 39 patients analysed

In the case of `Nc1nc2[nH]cc(CCc3ccc(C(=O)N[C@@H](CCC(=O)O)C(=O)O)cc3)c2c(=O)[nH]1` [pem, pemetrexed], the “2 yr OS” value (MPM [1]) is given as 30%), the “Median OS, Average” value (MPM [2]) is given as 11.7 mo and the “Response rate, Average” value (MPM [2]) is given as 18%. The “TTP/PFS, Average” value (MPM [2]) was 5.1 mo.

For nadofaragene firadenovec [Ad.IFN], the “CD8 T Cells: % Positive for CD69” value (CD8 T cells and NK cells; Good Responders, D 2, median) was 26.6 (IQR: 23.2- %, the “NK Cells: % Positive for CD69” value (CD8 T cells and NK cells; Good Responders, D 2, median, p = 0.03 vs Baseline) was 66.6* (IQR: 42.1- % and the “CD8 T Cells: % Positive for CD69” value (CD8 T cells and NK cells; Good Responders, D 15, median) was 16.6 (IQR: 11.5- %. The “NK Cells: % Positive for CD69” value (CD8 T cells and NK cells; Good Responders, D 15, median) was 20.9 (IQR: 5.8- %, the “CD8 T Cells: % Positive for CD69” value (CD8 T cells and NK cells; Poor Responders, D 2, median) was 22.1 (IQR: 9.9- % and the “NK Cells: % Positive for CD69” value (CD8 T cells and NK cells; Poor Responders, D 2, median) was 33.3 (IQR: 22.8- %. For the same molecule, the “CD8 T Cells: % Positive for CD69” value (CD8 T cells and NK cells; Poor Responders, D 15, median) was 14.9 (IQR: 10.5- %, the “NK Cells: % Positive for CD69” value (CD8 T cells and NK cells; Poor Responders, D 15, median) was 22.7 (IQR: 13.2- % and the “patients with a greater than 20% decrease in SMRP level” value ([3]; at some time point) was 15 of the 27 patients. For the same molecule, the “patients with more than a 20% increase in SMRP level” value [3] was 12 of the 27 patients, the “Antibody Response” value ([4]; patient 402) was 2 and the “Antibody Response” value ([4]; patient 404) was 0. For the same molecule, the “Antibody Response” value ([4]; patient 405) was 2, the “Antibody Response” value ([4]; patient 406) was 1 and the “Antibody Response” value ([4]; patient 411) was 0. The “Antibody Response” value ([4]; patient 416) was 0, the “Antibody Response” value ([4]; patient 417) was 2 and the “Antibody Response” value ([4]; patient 421) was 2. The “Antibody Response” value ([4]; patient 422) was 2, the “Antibody Response” value ([4]; patient 423) was 1 and the “Antibody Response” value ([4]; patient 425) was 1. The “Antibody Response” value ([4]; patient 429) was 1, the “patients with clear increases in anti-tumor bands” value [4, 5] was 14 patients and the “patients with minimal changes in tumor bands” value [4, 5] was 14 patients. The “patients with no changes in number or intensity of anti-tumor immunoblot bands” value [4, 5] was 11 patients.
